The subject of assay [1] is human MCF7 breast cancer cell line. Kind of assay: MTT cytotoxicity test, 72 h, MCF7. It is filed as cell-based. The following applies: MCF7 cells, mean ± standard deviation from 3 independent experiments. How it is done:
(§1) The MCF7, MCF7D (gift of N. I. Moiseeva), HaCat, A549, and SW480 cell lines were cultured in Dulbecco modified Eagle's medium (DMEM; PanEco, Russia) with 10% fetal bovine serum (HyClone, USA) and antibiotics (PanEco, Russia) in 5% CO2, 37°C. The compounds were predissolved at 20 mM in dimethyl sulfoxide (DMSO) and added to the cell culture at the required concentration with maximum DMSO content of 0.5 v/v%. Cells in 96-well plates (7 × 10^3 cells/well) were treated with various concentrations of 3, 4, cisplatin, or bexarotene at 37°C for 72 h. Cell viability was determined using the MTT assay as follows: cells were incubated at 37°C for 4 h with 20 μl of 5 mg/ml solution of 3-(4,5-dimethylthiazol-2-yl)-2,5 diphenyltetrazolium bromide (Sigma-Aldrich, St. Louis, USA). The supernatant was discarded and formazan was dissolved in 150 μl of DMSO. The optical density of the solution was measured at 550 nm on a multiwell plate reader (Multiskan FC, Thermo Fisher Scientific, USA). The percentage of viable (i.e., MTT converting) cells was calculated from the absorbance of untreated cells (100%). Each experiment was repeated three times, and each concentration was tested in three replicates.
(§2) The cytotoxicity of complexes 3 and 4, bexarotene, and cisplatin was evaluated in the human MCF7 breast cancer cell line and its doxorubicin/cisplatin resistant subline MCF7D, as well as against colon carcinoma SW480 cells, non-small cell lung carcinoma A549, and immortalized human nonmalignant keratinocyte HaCat cell line using the colorimetric MTT-test after 72 h of incubation (Table 1). The cytotoxic potency of oxaliplatin, the Pt(II) precursor of the new complexes, was taken from literature.
For orientation: Formazan colour is commonly taken as a measure of viable cells.

For assay [2], the system named is non-small cell lung carcinoma A549. Kind of assay: MTT cytotoxicity test, 72 h, A549. The following applies: A549 cells, mean ± standard deviation from 3 independent experiments. It is filed as cell-based, human. How it is done: as §1, §2
The subject of assay [3] is colon carcinoma SW480 cells. Kind of assay: MTT cytotoxicity test, 72 h, SW480. Format: cell-based, human. The following applies: mean ± standard deviation from 3 independent experiments. The method, then:
as §1, §2

Assay [4] relates to immortalized human nonmalignant keratinocyte HaCat cell line. Kind of assay: MTT cytotoxicity test, 72 h, HaCat. It is filed as cell-based. The note with it: HaCat nonmalignant keratinocytes, mean ± standard deviation from 3 independent experiments. How it is done: as §1, §2
Assay [5] has as its system doxorubicin/cisplatin resistant subline MCF7D. Kind of assay: MTT cytotoxicity test, 72 h, MCF7D. The following applies: MCF7D cells (doxorubicin/cisplatin resistant), mean ± standard deviation from 3 independent experiments. Format: cell-based, human. How it is done:
as §1, §2

Assay [6] has as its system non-small cell lung carcinoma A549. The arrangement: method as in PMID 22331606. The following applies: A549 cells; taken from literature; cited from earlier work.
In assay [7] the test system is colon carcinoma SW480 cells. More on the design: method as in PMID 22331606. The note with it: taken from literature; cited from earlier work.
The test system of assay [8] is human MCF7 breast cancer cell line. The arrangement: method as in PMID 22213516. The note with it: MCF7 cells; taken from literature; cited from earlier work.

Read-outs that look alike come from different tables or passages of the source.

In general, IC50 refers to the concentration that inhibits the measured activity by half. On to `N.N.[Cl][Pt][Cl]` [Cisplatin], for which the IC50 in assay [1] is 14 ± 7 µM; in assay [2], 29 ± 10 µM; in assay [3], 14 ± 4.4 µM; in assay [4], 30 ± 10 µM; in assay [5], 75 ± 5.8 µM.
For the compound “(OC-6-33)-(trans-1R,2R-Diaminocyclohexane)-bis(4-(1-(3,5,5,8,8-pentamethyl-5,6,7,8-tetrahydro-2-naphthyl)vinyl)benzoato)oxalatoplatinum(IV) [Complex 3]”, the IC50 in assay [1] was more than 100 µM; in assay [2], 83 ± 16 µM; in assay [3], more than 100 µM; in assay [4], more than 100 µM; in assay [5], more than 100 µM.
Consider `O=C(O)C(=O)O.[NH-][C@@H]1CCCC[C@H]1[NH-].[Pt+2]` [Oxaliplatin], for which the IC50 in assay [6] was 11.5 ± 3.9 µM; in assay [7], 0.9 ± 0.3 µM; in assay [8], 43.8 µM.
For “(OC-6-44)-acetato(trans-1R,2R-Diamineocyclohexane)-4-(1-(3,5,5,8,8-pentamethyl-5,6,7,8-tetrahydro-2-naphthyl)vinyl)benzoato)oxalatoplatinum(IV) [Complex 4]”, the IC50 turned out to be 0.47 ± 0.07 µM in assay [1]; 10 ± 1 µM in assay [2]; 11 ± 1.6 µM in assay [3]; 8 ± 1.3 µM in assay [4]; 4.8 ± 0.5 µM in assay [5]. For the same compound, in assay [1], the “IC50 MCF7” value was “submicromolar range”.
With `C=C(c1ccc(C(=O)O)cc1)c1cc2c(cc1C)C(C)(C)CCC2(C)C` [Bexarotene, 4-(1-(3,5,5,8,8-pentamethyl-5,6,7,8-tetrahydro-2-naphthyl)vinyl)benzoic acid], the IC50 in assay [1] (Homo sapiens) was 67 ± 13 µM; in assay [2] (Homo sapiens), 85 ± 9 µM; in assay [3] (Homo sapiens), 80 ± 10 µM; in assay [4] (Homo sapiens), more than 90 µM; in assay [5] (Homo sapiens), 71 ± 21 µM.

Values taken from article PMC5540250, “Influence of the Number of Axial Bexarotene Ligands on the Cytotoxicity of Pt(IV) Analogs of Oxaliplatin” (Bioinorganic Chemistry and Applications, 2017).
